Test results: ChEMBL document CHEMBL1201862, “PubChem BioAssay data set” (2004)
Calls of active or inactive are those of the source.

What was measured:
[1] = HepG2 cell cytotoxicity, dose response, cytotoxicity control for non-replicating M. tuberculosis project (AID 489018); format: functional; conditions: Mycobacterium tuberculosis
[2] = THP-1 cell cytotoxicity, dose response, cytotoxicity control for non-replicating M. tuberculosis project (AID 489025); format: functional
[3] = biological target: ATP-dependent molecular chaperone HSP82 (Candida albicans (strain WO-1) (Yeast), UniProt C4YTQ8); test: steroid-induced GRE reporter decrease in yeast – S. cerevisiae, luminescence, Hsp90 inhibitor project, dose response (AID 2400); format: functional, cell-based;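 also: beta-galactosidase luminescence from glucocorticoid response element reporter as proxy for Hsp90 function; inhibitor potency where signal loss means Hsp90 inhibition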
[4] = cells; format: functional
[5] = NIH-3T3 fibroblast cytotoxicity, dose response, cytotoxicity control, cell-based, fluorescence, Alamar Blue, secondary assay (AID 2327); format: functional;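 also: NIH-3T3 mouse fibroblasts cultured with fluconazole at 8 µg/mL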
[6] = fluconazole-exposed Candida albicans growth modulators – fluorescence, retest, confirmation (AID 2467); format: functional, cell-based
[7] = biological target: T1, Serine/threonine-protein phosphatase (Candida dubliniensis (strain CD36 / CBS 7987 / NCPF 3949 / NRRLY-17841) (Yeast), UniProt B9W6M3); test: blockers of CaCl2-induced CDRE-lacZ signaling – S. cerevisiae, luminescence, secondary, dose response (AID 2388); format: functional, cell-based;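 also: yeast reporter cells carrying a calcineurin-responsive lacZ construct stimulated with calcium chloride; luminescent beta-galactosidase reporter signal in whole cells rather than isolated phosphatase activity; potency for inhibition where a drop in reporter signal means calcineurin blockade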
T1 sequence (B9W6M3 whole entry): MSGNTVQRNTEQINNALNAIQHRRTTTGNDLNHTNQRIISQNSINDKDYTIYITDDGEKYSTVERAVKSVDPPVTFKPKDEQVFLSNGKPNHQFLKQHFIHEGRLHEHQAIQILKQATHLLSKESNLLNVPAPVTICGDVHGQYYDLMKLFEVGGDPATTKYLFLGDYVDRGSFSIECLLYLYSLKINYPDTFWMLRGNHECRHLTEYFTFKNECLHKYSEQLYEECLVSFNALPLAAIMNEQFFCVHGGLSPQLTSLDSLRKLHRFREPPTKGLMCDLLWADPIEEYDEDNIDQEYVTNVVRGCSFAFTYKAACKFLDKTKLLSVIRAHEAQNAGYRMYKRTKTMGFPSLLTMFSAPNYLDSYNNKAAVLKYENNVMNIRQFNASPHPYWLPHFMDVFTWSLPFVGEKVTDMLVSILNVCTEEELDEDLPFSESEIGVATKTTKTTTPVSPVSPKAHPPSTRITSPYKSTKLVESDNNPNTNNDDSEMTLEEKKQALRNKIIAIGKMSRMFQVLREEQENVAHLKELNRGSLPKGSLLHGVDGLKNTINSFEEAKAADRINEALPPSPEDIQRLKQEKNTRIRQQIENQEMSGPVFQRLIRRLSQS

[8] = system: Streptococcus; test: GAS UMAA2166 growth inhibition – luminescence, BacTiterGlo, counter-screen for streptokinase expression inhibitor project, dose response (AID 1915); format: functional, organism-based;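 also: potency for reduction of bacterial viability or growth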
[9] = Vero E6 cell cytotoxicity, dose response, cytotoxicity control for non-replicating M. tuberculosis project, secondary assay (AID 492998); format: functional, VeroE6; conditions: Vero C1008
[10] = system: Streptococcus sp. 'group A'; test: Streptococcus pyogenes SK(-)GAS viability under kanamycin – luminescence, BacTiterGlo, confirmation, counter-screen for streptokinase expression inhibitor project, dose response (AID 1900); format: functional, organism-based
[11] = biological target: Beta-galactosidase (Escherichia coli, UniProt Q8VNN2); test: PubChem AID 485352; format: functional
[12] = biological target: Type-1 angiotensin II receptor (Homo sapiens, UniProt P30556); test: antagonism of angiotensin II type 1 receptor – cell-based, uHTS hits, selectivity assay for APJ receptor antagonist project, dose response (AID 463214); format: functional;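 also: antagonist potency against angiotensin II stimulated AT1 response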
[13] = system: HEK293; test: cells; conditions: Homo sapiens
[14] = system: HEK293; test: cells; conditions: Homo sapiens; remark: listed apart in the source
[15] = biological target: T2, High affinity choline transporter 1 (Homo sapiens, UniProt Q9GZV3); test: human choline transporter blockers, potency – cell-based, 5-point CRC, membrane potential dye, dose response (AID 504840); format: functional
T2 sequence (Q9GZV3 whole entry): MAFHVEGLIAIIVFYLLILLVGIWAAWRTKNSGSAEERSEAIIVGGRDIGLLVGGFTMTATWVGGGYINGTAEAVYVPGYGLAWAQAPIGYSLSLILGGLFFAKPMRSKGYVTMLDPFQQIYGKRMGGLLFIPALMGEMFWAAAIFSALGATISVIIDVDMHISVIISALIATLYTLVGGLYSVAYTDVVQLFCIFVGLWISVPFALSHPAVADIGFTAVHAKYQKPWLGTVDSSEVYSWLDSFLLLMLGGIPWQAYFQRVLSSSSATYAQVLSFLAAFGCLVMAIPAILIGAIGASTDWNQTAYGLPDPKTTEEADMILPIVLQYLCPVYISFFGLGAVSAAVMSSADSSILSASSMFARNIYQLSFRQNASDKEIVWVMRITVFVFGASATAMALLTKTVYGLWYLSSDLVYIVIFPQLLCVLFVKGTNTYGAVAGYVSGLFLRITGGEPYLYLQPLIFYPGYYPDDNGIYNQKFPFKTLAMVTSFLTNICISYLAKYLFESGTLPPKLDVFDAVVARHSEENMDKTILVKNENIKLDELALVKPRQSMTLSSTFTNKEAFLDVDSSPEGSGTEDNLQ

[16] = alpha-synuclein stem-loop luciferase translation blockers – H4 neuroglioma cells, luminescence, confirmation (AID 1988); format: functional, cell-based
[17] = Luminescence Cell-Based Dose Response HTS to Identify Inhibitors of 5'UTR Stem-Loop Driven Prion Protein mRNA Translation in H4 Neuroglioblastoma Cells. [Related pubchem assays: 1827 (Project Summary), 1813 (Primary HTS)]; format: functional
[18] = luciferase reporter signal suppression in cells – H4 neuroglioma cells, luminescence, dose response (AID 1990); format: functional, cell-based
[19] = biological target: Heat shock protein HSP 90-alpha (Homo sapiens, UniProt P07900); format: functional, organism-based
[20] = system: A-375; test: MITF: Counter assay: A375 proliferation Measured in Cell-Based System Using Plate Reader - 2084-03_Inhibitor_Dose_DryPowder_Activity. [Related pubchem assays (depositor defined):AID488944]; format: functional; conditions: Homo sapiens
[21] = system: A-375; test: proliferation inhibition in MITF-low A375 cells – cell-based, cherry-pick samples, set 2, counter-screen for MITF modulator project, dose response (AID 540335); format: functional; conditions: Homo sapiens

Sequence of ATP-dependent molecular chaperone HSP82 (C4YTQ8 whole entry): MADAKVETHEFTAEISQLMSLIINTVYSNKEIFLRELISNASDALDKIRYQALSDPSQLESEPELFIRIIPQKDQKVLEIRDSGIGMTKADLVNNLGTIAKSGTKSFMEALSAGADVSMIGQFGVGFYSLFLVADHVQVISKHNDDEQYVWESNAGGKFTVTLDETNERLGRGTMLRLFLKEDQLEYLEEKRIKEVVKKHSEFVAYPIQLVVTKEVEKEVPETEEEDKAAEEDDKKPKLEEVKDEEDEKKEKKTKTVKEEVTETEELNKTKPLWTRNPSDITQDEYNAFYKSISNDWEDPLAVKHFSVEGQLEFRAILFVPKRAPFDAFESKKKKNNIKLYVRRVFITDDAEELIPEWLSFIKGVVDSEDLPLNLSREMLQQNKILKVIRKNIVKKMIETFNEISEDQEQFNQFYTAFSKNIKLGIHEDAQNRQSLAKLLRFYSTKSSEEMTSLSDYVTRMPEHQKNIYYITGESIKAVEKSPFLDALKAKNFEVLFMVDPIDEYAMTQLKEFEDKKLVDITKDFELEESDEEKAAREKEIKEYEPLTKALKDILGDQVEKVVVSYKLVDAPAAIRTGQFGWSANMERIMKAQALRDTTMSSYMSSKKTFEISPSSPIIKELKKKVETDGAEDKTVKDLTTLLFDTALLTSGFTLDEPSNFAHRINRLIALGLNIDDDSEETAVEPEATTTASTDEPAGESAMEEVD
Sequence of Beta-galactosidase (Q8VNN2 whole entry): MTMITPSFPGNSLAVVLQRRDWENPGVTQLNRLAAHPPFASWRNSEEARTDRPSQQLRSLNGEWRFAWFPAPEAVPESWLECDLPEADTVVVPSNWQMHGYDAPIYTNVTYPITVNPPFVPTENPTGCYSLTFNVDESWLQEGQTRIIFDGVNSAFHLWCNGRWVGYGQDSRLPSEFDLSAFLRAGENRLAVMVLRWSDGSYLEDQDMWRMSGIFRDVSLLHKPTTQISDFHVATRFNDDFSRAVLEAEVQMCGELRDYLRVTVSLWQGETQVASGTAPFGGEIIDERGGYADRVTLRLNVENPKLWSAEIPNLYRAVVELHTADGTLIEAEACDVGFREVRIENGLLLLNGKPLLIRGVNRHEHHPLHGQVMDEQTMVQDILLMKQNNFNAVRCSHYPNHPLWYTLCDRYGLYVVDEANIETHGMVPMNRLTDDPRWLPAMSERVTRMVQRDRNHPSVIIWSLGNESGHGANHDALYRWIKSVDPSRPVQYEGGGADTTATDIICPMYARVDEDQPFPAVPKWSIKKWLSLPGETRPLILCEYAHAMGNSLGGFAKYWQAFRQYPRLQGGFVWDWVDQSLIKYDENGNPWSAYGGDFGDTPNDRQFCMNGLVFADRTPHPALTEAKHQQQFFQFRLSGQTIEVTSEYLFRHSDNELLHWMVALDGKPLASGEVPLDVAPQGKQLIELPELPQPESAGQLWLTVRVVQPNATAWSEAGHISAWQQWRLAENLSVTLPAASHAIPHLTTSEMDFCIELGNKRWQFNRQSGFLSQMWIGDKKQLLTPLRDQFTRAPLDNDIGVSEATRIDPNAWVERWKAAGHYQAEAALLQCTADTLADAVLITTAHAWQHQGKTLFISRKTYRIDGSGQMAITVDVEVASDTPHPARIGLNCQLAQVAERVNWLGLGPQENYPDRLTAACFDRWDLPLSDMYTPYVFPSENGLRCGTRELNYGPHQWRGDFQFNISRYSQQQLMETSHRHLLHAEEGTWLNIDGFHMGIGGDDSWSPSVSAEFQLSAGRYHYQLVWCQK
Sequence of Type-1 angiotensin II receptor (P30556 whole entry): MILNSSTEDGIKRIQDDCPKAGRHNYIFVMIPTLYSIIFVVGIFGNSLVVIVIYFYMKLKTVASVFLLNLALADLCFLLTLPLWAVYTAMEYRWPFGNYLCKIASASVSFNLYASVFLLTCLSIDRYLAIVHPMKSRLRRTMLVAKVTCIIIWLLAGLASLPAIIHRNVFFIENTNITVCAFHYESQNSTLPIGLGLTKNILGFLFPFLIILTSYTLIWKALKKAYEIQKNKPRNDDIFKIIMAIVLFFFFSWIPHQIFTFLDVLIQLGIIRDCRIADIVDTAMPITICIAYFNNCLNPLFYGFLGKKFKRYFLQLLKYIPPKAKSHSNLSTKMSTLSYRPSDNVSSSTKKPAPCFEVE

In the case of O=C(Nc1nnc(C2COc3ccccc3O2)o1)c1ccc(F)cc1 (configuration not stated), the CC50 [1] is reported as 19.9 µM (active), the CC50 [2] is reported as 15.7 µM (active) and the EC50 [3] is reported as > 150 µM (inactive). The IC50 [4] was 1.49 µM (active), the EC50 [5] was 25.4 µM (inconclusive) and the EC50 [6] was 0.968 µM (active). The EC50 [7] was > 180 µM (inactive), the EC50 [8] was 11.4 µM (active) and the CC50 [9] was 11.4 µM (active). For the same molecule, the EC50 [10] was 0.98 µM (active).
With O=C(NNc1ncc(C(F)(F)F)cc1Cl)c1c(Cl)cccc1Cl the EC50 [11] was > 40 µM (inactive) and the IC50 [12] was > 40 µM (not active).
In the case of CN(C)C(=S)N=c1ssc(=S)n1Cc1ccccc1, the EC50 [13] is reported as > 59.7 µM (inactive) and the EC50 [14] is reported as > 59.7 µM (inactive).
In the case of Cc1ccccc1C(=O)O/N=C/c1c(N2CCOCC2)n(C)c2ccccc12, the IC50 [15] is reported as 21.6 µM (active), the EC50 [3] is reported as 23.7 µM (active) and the EC50 [16] is reported as 4.88 µM (active). The EC50 [5] was > 160 µM (inactive), the EC50 [6] was 0.212 µM (active) and the EC50 [7] was > 180 µM (inactive). For the same molecule, the EC50 [17] was 11.8 µM (active) and the EC50 [18] was 0.455 µM (active).
In the case of O=C(C=Cc1ccccn1)c1ccccc1O, the EC50 [13] is reported as > 59.6 µM (inactive), the AC50 [19] is reported as 2.37 µM (active) and the EC50 [14] is reported as > 59.6 µM (inactive).
For Cc1ccc(SCc2cn3cc(Cl)ccc3n2)cc1, the AC50 [20] was > 35 µM (active) and the AC50 [21] was > 35 µM (active).
